Test results published in patent publication US20030022241A1, “Methods” (priority 2001, published 2003).

Molecular target: native MNK-2B (Homo sapiens, UniProt Q9HBH9)
Test: NMR screening (Saturation Transfer Difference) for compounds binding Mnk2b
Settings: screen: 1 μM native MNK-2B, 200 μM compound mixture; confirmation: 2 μM native Mnk2B, 250 μM individual compound; pH 7.5, 20° C.
Text: A diversity library consisting of relatively small and highly water-soluble compounds was used to screen native MNK-2B for binders by NMR (Nuclear Magnetic Resonance). The NMR tecinique used to identify binders was Saturation Transfer Difference (STD): the protein ^1H resonances are saturated by means of a weak radio-frequency field applied to a narrow spectral region. The saturation is transferred by spin diffusion to the rest of the protein and subsequently further to compounds that bind to the protein attenuating their signals in the NMR spectrum. The spectrum is then subtracted from a spectrum obtained at non-saturating conditions to obtain an STD spectrum showing only the signals from compounds interacting with the protein. In practice the pulse sequence is written in such a way that the subtraction is done automatically in every other scan, i.e. the individual spectra are never observed (Mayer & Meyer, Angew. Chem. Int. Ed., 38, 1784-1788, 1999).
The compounds in the library are divided into mixtures consisting of 4-8 compounds each. Each sample contained 1 μM native MNK-2B, 200 μM compound mixture, 50 mM sodium phosphate buffer, 1 mM DTT, pH 7.5 in ca 98% D2O/2% H2O. […] The volume was 600 μl and standard NMR tubes were used. […] A reference ^1H 1D experiment and an STD experiment were recorded on each sample. […]

native MNK-2B, sequence (Q9HBH9 1-414 isoform Q9HBH9-2): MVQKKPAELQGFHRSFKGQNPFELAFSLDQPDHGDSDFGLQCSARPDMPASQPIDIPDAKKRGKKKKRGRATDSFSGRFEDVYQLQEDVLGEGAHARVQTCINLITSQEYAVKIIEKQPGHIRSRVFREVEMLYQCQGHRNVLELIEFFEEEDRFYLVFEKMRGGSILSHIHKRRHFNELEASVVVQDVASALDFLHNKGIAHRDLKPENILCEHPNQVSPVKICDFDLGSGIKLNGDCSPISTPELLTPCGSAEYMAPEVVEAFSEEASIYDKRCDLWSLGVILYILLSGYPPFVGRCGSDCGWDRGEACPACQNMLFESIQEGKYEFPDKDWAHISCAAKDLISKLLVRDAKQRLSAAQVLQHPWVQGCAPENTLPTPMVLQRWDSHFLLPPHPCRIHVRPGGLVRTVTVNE

COC(=O)c1ccc(O)cc1 [4-hydroxy-benzoic acid methyl ester]
binding to Mnk2b by STD NMR (identified as ligand): identified as Mnk2b ligands
